Source: patent US8048642B2, “Heme choline esters and uses thereof” (priority 2007, dated 2011)

Columns and labels:
Type in all cases: biochemical
[1] = biological target: butyrylcholine esterase (BCE) (Equus caballus, UniProt P81908); assay: Hydrolysis of heme bis choline ester by butyrylcholine esterase, followed by HPLC; conditions: bis choline ester with BCE (50 units) in phosphate buffer pH 7.0, HPLC at 400 nm
Protocol: To confirm enzymatic hydrolysis of heme bis choline ester, a sample of bis choline ester in methanol was added to a solution of butyrylcholine esterase (BCE) (50 units) in phosphate buffer (pH 7.0). The progress of the hydrolysis was determined by HPLC analysis of the reaction mixture using a Waters Xterra C18 reverse phase column (4.6×50 mm). A gradient elution was performed starting with 95:5 water (+0.1% TFA):acetonitrile (+0.1% TFA) up to 0:100 over 10 minutes followed by isocratic elution with acetonitrile (+0.1% TFA) for 5 minutes. […] Under these conditions the bis ester elutes first (tR=5.2 min) followed by the monoester (5.9 min) and heme (6.6 min).

[2] = biological target: T1, apo-horseradish peroxidase (apo-HRP) (Armoracia rusticana, UniProt P00433); assay: Recombination of heme and apo-HRP, TMB colorimetry; conditions: heme mixed with 30 pmol apo-horseradish peroxidase, 30 min, background corrected
T1 sequence (P00433 31-338): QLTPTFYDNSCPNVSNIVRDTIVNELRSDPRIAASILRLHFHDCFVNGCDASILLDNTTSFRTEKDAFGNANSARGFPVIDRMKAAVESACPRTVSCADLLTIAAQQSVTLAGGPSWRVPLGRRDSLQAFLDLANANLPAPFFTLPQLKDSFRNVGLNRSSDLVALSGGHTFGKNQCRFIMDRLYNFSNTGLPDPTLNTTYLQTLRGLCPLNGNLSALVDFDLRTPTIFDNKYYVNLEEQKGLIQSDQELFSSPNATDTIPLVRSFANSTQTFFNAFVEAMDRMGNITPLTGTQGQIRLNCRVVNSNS
Protocol: A 250 μM stock solution of horseradish peroxidase type VI (HRP, Sigma P8375, MW=44000 g/mol) was prepared by solubilizing 11 mg of lyophilized protein in 1 mL 100 mM sodium phosphate, pH 7.0.
Heme was extracted from horseradish peroxidase type VI (Sigma P8375) according to the method of Teale (Biochim. Biophys. Acta 35, 543, (1959)). The resultant apo-HRP was dialyzed into 100 mM sodium phosphate, pH 7.0, with 0.1 mM calcium chloride. The concentration of this stock apo-HRP solution was estimated from absorbance at 280 nm as 30 μM by assuming an extinction coefficient of 20000 cm^−1 M^−1 (Lasagna et al., Biophys. J. 76, 443, (1999)).
Within an hour before performing the peroxidase assay a fresh stock solution of approximately 1 mM heme (MW 652 g/mol) was prepared by first dissolving 38.9 mg heme (Sigma H5533) in 1 mL of 1.0M NaOH and then mixing 100 μL of the resulting solution with 6 mL 100 mM borate buffer, pH 9.1.
The absorbance data in Table 4 was acquired using a SpectraMax M2 plate reader (Molecular Devices) in 96-sample format. The HRP stock solution was diluted serially with 100 mM sodium phosphate, pH 7.0, to make 2000, 500 and 50 pM solutions. 10 μL of each solution was then mixed with 90 μL 3,3′,5,5′-tetramethylbenzidine (TMB) liquid substrate system (Sigma T8665) to define t=0. The absorbance at 650 nm was measured after 30 min and corrected for the absorbance of TMB solution without added HRP.
The heme stock solution was diluted serially with 100 mM borate buffer, pH 9.1, to make 2000 pM, 500 pM, and 50 pM solutions. 10 μL of each solution was first mixed with 1 μL of the apo-HRP stock solution and then immediately mixed with 90 μL TMB liquid substrate system to define t=0. The absorbance at 650 nm was measured after 30 min and corrected for the absorbance of a mixture of apo-HRP and TMB liquid substrate system without added heme.

[3] = biological target: T1, apo-horseradish peroxidase (apo-HRP); assay: Signal enhancement from HRP-based cascade using a chromogenic substrate (TMB); conditions: 6 minutes after adding TMB liquid substrate; mixtures pre-incubated 16 hours at room temperature
Protocol: The samples in Table 2 were prepared from the following stock solutions. A 120 μM stock solution of apo-HRP was prepared by adding 2 mL phosphate-buffered saline (PBS, Pierce 28372) to 10 mg lyophilized apo-HRP (Sigma 6278, MW=43000 g/mol). A 250 μM stock solution of horseradish peroxidase type VI (HRP, Sigma P8375, MW=44000 g/mol) was prepared by solubilizing 11 mg lyophilized protein in 1 mL 100 mM sodium phosphate, pH 7.0. A 1 kU/mL stock solution of butyrylcholine esterase was prepared by dissolving 1 kU lyophilized protein (Sigma C1057) in 1 mL phosphate-buffered saline (PBS, Pierce 28372). […] The 1 cm-path length absorbance of this 10% methanol solution was measured to be 17 absorbance units (au) at 390 nm using a NanoDrop-1000 Spectrophotometer. […]
Samples A1, A2, B1, and B2 were each combined with 95 μL 3,3′,5,5′-tetramethylbenzidine (TMB) liquid substrate system (Sigma T8665), which includes hydrogen peroxide. After 6 minutes OD was determined at 650 nm in a 96-well format using a SpectraMax M2 plate reader (Molecular Devices). These signals are recorded in Table 2 above.
Relative signal enhancement was calculated by subtracting appropriate background signals from wells A1 and A2, and then taking a ratio. […] The calculated signal enhancement is thus equal to (A1−B2)/(A2−B1), which corresponds to (1.05−0.16)/(0.10−0.04)=15. […]

[4] = biological target: T1, apo-horseradish peroxidase (apo-HRP); assay: Blocking and rescue of peroxidase activity with a chemiluminescent substrate; conditions: for Rescue of peroxidase activity of apo-HRP plus heme bis choline ester: esterase added to apo-HRP and heme bis choline ester
Protocol: (§1) A 1-kU/mL stock solution of butyrylcholine esterase was prepared by dissolving 1 kU of lyophilized protein (Sigma C1057) in 1 mL phosphate-buffered saline (PBS, Pierce 28372). An activity of 900 U per mg protein and MW=250000 g/mol was assumed and the concentration of the resultant solution was estimated as 4 μM.
as §1, with “1 kU/mL” for “1-kU/mL”, “acetylcholine” for “butyrylcholine”, “kU” for “kU of”, “C2888)” for “C1057)”, “1000” for “900”, “MW=280000” for “MW=250000”
A fresh 1 mM solution of heme was prepared in 100 mM borate buffer, pH 9.1, as described in Example 5. The 1 cm-path length absorbance of this solution was measured to be 40 at 390 nm using a NanoDrop-1000 Spectrophotometer (NanoDrop Technologies). A 0.1 mM heme solution was then prepared by mixing 100 μL of this stock with 900 μL in PBS.
Less than 1 mg heme bis choline ester was dissolved in 100 μL methanol. 10 μL of the methanol solution was then mixed with 90 μL 100 mM borate buffer, pH 9.1. The 1 cm-path length absorbance of this 10% methanol solution was measured to be 17 absorbance units (au) at 390 nm using a NanoDrop-1000 Spectrophotometer. Assuming the extinction coefficient of heme bis choline ester in 10% methanol was not substantially different than that of heme in PBS, a 0.1 mM solution of heme bis choline ester was then prepared by mixing 23.5 μL of the 10% methanol solution with 77.5 μL PBS.
Solutions of 0.3 μM apo-HRP, 10 μM heme and 10 μM heme bis choline ester in PBS were prepared by dilution of these stock solutions with PBS. […]
90 μL of freshly mixed chemiluminescent substrate (Sigma CPS260, an enhanced luminol product with a stabilized peroxide buffer solution) was added to reaction mixtures 1-6, which were allowed to incubate at room temperature for 5 minutes and the luminescence units (LU) for each was determined with a SpectraMax M2 plate reader in a 96-well format (Molecular Devices), shown below in Table 5.

Chain of butyrylcholine esterase (BCE) (P81908 whole entry): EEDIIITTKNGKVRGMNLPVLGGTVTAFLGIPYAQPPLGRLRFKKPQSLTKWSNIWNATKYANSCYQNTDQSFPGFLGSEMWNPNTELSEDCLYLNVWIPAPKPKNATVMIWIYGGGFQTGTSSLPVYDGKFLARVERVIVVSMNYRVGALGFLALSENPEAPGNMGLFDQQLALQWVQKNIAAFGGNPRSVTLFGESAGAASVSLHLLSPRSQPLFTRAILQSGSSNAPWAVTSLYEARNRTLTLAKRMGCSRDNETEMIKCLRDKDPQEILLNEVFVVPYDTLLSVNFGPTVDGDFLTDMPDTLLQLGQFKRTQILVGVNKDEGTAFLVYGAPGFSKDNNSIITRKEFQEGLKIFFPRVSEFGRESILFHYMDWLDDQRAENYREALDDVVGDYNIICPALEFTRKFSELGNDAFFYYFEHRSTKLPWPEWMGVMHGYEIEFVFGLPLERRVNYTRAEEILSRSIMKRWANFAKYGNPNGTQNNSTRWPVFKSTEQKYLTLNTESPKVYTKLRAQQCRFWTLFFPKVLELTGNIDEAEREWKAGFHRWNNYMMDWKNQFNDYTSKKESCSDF

How did the “HPLC peak area (hydrolysis progress)” value ([1]; 0.75 hr) turn out when `C=CC1=C(C)c2cc3[n-]c(cc4[n-]c(cc5nc(cc1n2)C(C)=C5C=C)c(C)c4CCC(=O)O)c(CCC(=O)O)c3C.[Fe+2]` [Heme, heme] was run?
The value was 7 AUC units.

What about the “HPLC peak area (hydrolysis progress)” value ([1]; 2.75 hr) of the same compound?
The value was 12 AUC units.

And the “HPLC peak area (hydrolysis progress)” value ([1]; 21 hr)?
Its value is 21 AUC units.

What about the “OD 650 nm” value ([2]; 5 fmol) of the same compound?
The value was 0.07.

And the “OD 650 nm” value ([2]; 20 fmol)?
The value was 0.79.

For “A2: 5 μL of 0.13 nM HRP (0.7 fmol) [Sample A2]”, which “OD 650 nm” value [3] is on record?
The value was 0.10.

“BCE: butyrylcholine esterase (Sigma C1057)” was tested. Which “Rescue of peroxidase activity of apo-HRP plus heme bis choline ester” value [4] did it give?
The value was “rescued”.

Which “Rescue of peroxidase activity of apo-HRP plus heme bis choline ester” value [4] does the source give for “acetylcholine esterase: acetylcholine esterase (Sigma C2888)” here?
The value was “did not demonstrably rescue peroxidase activity”.

For heme bis choline ester [Bis ester], which “Hydrolysis vs. Time, converted to concentration” value (from here on “Hydrolysis vs. Time, converted”) ([1]; 0 hr) is on record?
Its value is 100 AUC units.

And the “Hydrolysis vs. Time, converted” value ([1]; 0.75 hr)?
Its value is 60 AUC units.

What about the “Hydrolysis vs. Time, converted” value ([1]; 2.75 hr) of the same compound?
The value was 52 AUC units.

And the “Hydrolysis vs. Time, converted” value ([1]; 21 hr)?
The value was 41 AUC units.

What about the “Peroxidase activity of mixture with apo-HRP compared with heme” value ([4]; sample 1 versus sample 4, 10-fold excess of heme bis choline ester) of the same compound?
Its value is “less peroxidase activity”.

Which results are given for heme mono choline ester [Mono ester]?
Hydrolysis vs. Time, converted to concentration ([1]; 0.75 hr): 28 AUC units; Hydrolysis vs. Time, converted to concentration ([1]; 2.75 hr): 29 AUC units; Hydrolysis vs. Time, converted to concentration ([1]; 21 hr): 24 AUC units

For “horseradish peroxidase: horseradish peroxidase type VI (Sigma P8375)”, which “OD 650 nm” value ([2]; 5 fmol) is on record?
Its value is 0.88.

What about the “OD 650 nm” value ([2]; 20 fmol) of the same compound?
Its value is 3.4.
